The values that follow are results of earlier work, collected in patent US20230106284A1, “SYSTEM AND METHOD FOR GENERATING POTENTIAL DRUG COMPOSITIONS FOR DISEASE TARGET” (Innoplexus AG, priority 2020, published 2023).

The conditions of this data set: oral delivery.

Consider `O=C(O)c1ccc(-n2nc(-c3ccccc3O)nc2-c2ccccc2O)cc1` [DFX, deferasirox], for which the bioavailability result is listed as “about 70%” and the volume of distribution was 14.37±2.69 litter.
